Where two headings read alike, the source gives them in different places.
Columns and labels:
H929 cells = experiment: Cell viability assay (H929 10 FBS); assay type: cell-based; conditions: Homo sapiens, NCI-H929, 24 hours, read-out: H929_10FBS IC50
Summary of the method: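 H929 cells, 4000/well, in RPMI 1640 with 10% FBS, sodium pyruvate, HEPES and glucose were exposed to compound 24 h at 37 °C. Viability read as luminescence after 30-60 min at RT with CellTiter-Glo or ATPlite 1 Step.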

MCL-1 = MCL-1 (Homo sapiens (Human), UniProt Q07820); experiment: Cell free Mcl-1:Bim affinity assay (fluorescence polarization competition); assay type: binding; conditions: 15 nM MCL-1, 5 nM FITC-Bim, 1 hour at room temperature, read-out: BIM_Ki
Sequence of MCL-1 (Q07820 whole entry): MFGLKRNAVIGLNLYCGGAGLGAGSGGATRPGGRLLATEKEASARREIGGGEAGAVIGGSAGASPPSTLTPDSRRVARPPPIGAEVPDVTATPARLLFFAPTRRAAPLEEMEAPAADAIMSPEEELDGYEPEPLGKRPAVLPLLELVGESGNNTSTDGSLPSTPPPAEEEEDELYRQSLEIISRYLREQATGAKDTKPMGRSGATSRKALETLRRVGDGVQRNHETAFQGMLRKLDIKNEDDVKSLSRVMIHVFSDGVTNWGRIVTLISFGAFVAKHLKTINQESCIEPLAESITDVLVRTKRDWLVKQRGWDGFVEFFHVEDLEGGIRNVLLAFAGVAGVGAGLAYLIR
Summary of the method: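 Compounds competed with FITC-labelled Bim peptide (5 nM) for MCL-1 (15 nM) in HEPES/NaCl buffer with 1% DMSO, 1 h at room temperature. Fluorescence polarization (535 nm emission) gave % inhibition versus DMSO and positive controls; IC50 from 10-point curves, converted to Ki by the Nikolovska-Coleska equation.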

Row | IC50 (H929 cells) [µM] | Ki (MCL-1; class symbols) [µM] | Ki (MCL-1; numeric values) [µM] | Compound
1 | < 0.5 | < 0.001 |  | CNC(=O)O[C@H]1/C=C/CN(C)C(C)(C)C(=O)NS(=O)(=O)c2ccc3c(c2)N(C[C@@H]2CC[C@H]21)C[C@@]1(CCCc2cc(Cl)ccc21)CO3 [Example 203, [(3R,6R,7S,8E,22S)-6′-Chloro-11,12,12-trimethyl-13,15,15-trioxo-spiro[20-oxa-15-thia-1,11,14-triazatetracyclo[14.7.2.03,6.019,24]pentacosa-8,16,18,24-tetraene-22,1′-tetralin]-7-yl] N-methylcarbamate]
2 | < 0.5 | < 0.001 |  | CN(C(=O)O[C@H]1/C=C/COC2(CCC2)C(=O)NS(=O)(=O)c2ccc3c(c2)N(C[C@@H]2CC[C@H]21)C[C@@]1(CCCc2cc(Cl)ccc21)CO3)[C@@H]1CCOC1 [Example 234, [(3R,6R,7S,8E,22S)-6′-Chloro-12,12-(1,3-propylene)-13,15,15-trioxo-spiro[11,20-dioxa-15-thia-1,14-diazatetracyclo[14.7.2.03,6.019,24]pentacosa-8,16,18,24-tetraene-22,1′-tetralin]-7-yl] N-methyl-N-[(3R)-tetrahydrofuran-3-yl]carbamate]
3 | < 0.5 | < 0.001 |  | CC1(C)OC/C=C/[C@@H](OCCN2CCOCC2)[C@@H]2CC[C@H]2CN2C[C@@]3(CCCc4cc(Cl)ccc43)COc3ccc(cc32)S(=O)(=O)NC1=O [Example 271, (3R,6R,7R,8E,22S)-6′-Chloro-12,12-dimethyl-7-(2-morpholinoethoxy)-15,15-dioxo-spiro[11,20-dioxa-15-thia-1,14-diazatetracyclo[14.7.2.03,6.019,24]pentacosa-8,16,18,24-tetraene-22,1′-tetralin]-13-one]
4 | < 0.5 | < 0.001 |  | CN1CC[C@H](NC(=O)O[C@H]2/C=C/COC(C)(C)C(=O)NS(=O)(=O)c3ccc4c(c3)N(C[C@@H]3CC[C@H]32)C[C@@]2(CCCc3cc(Cl)ccc32)CO4)C1 [Example 151, [(3R,6R,7S,8E,22S)-6′-Chloro-12,12-dimethyl-13,15,15-triox-spiro[11,20-dioxa-15-thia-1,14-diazatetracyclo[14.7.2.03,6.019,24]pentacosa-8,16,18,24-tetraene-22,1′-tetralin]-7-yl] N-[(3S)-1-methylpyrrolidin-3-yl]carbamate]
5 | < 0.5 | < 0.001 |  | CCO[C@H]1CCN(C(=O)O[C@H]2/C=C/COC(C)(C)C(=O)NS(=O)(=O)c3ccc4c(c3)N(C[C@@H]3CC[C@H]32)C[C@@]2(CCCc3cc(Cl)ccc32)CO4)C1 [Example 162, [(3R,6R,7S,8E,22S)-6′-Chloro-12,12-dimethyl-13,15,15-trioxo-spiro[11,20-dioxa-15-thia-1,14-diazatetracyclo[14.7.2.03,6.019,24]pentacosa-8,16,18,24-tetraene-22,1′-tetralin]-7-yl] (3S)-3-ethoxypyrrolidine-1-carboxylate]
6 | < 1 | < 0.001 |  | CN(C(=O)O[C@H]1/C=C/COC(C)(C)C(=O)NS(=O)(=O)c2ccc3c(c2)N(C[C@@H]2CC[C@H]21)C[C@]1(CO3)OCCc2cc(Cl)ccc21)C1CCOCC1 [Example 300, [(3R,6R,7S,8E,22R)-6′-Chloro-12,12-dimethyl-13,15,15-trio-spiro[11,20-dioxa-15-thia-1,14-diazatetracyclo[14.7.2.03,6.019,24]pentacosa-8,16,18,24-tetraene-22,1′-isochromane]-7-yl] N-methyl-N-tetrahydropyran-4-yl-carbamate]
7 | < 0.5 | < 0.001 |  | CC1(C)OC/C=C/[C@H](OCC(=O)N[C@@H]2CCOC2)[C@@H]2CC[C@H]2CN2C[C@@]3(CCCc4cc(Cl)ccc43)COc3ccc(cc32)S(=O)(=O)NC1=O [Example 284, 2-[(3R,6R,7S,8E,22S)-6′-Chloro-12,12-dimethyl-13,15,15-trioxo-spiro[11,20-dioxa-15λ6-thia-1,14-diazatetracyclo[14.7.2.03,6.019,24]pentacosa-8,16,18,24-tetraene-22,1′-tetralin]-7-yl]oxy-N-[(3R)-tetrahydrofuran-3-yl]acetamide]
8 | > 1 | 0.001 to 0.1 |  | CC1(C)OC/C=C/[C@H](O)[C@@H]2CC[C@H]2CN2C[C@]3(COc4ccc(cc42)S(=O)(=O)NC1=O)OCCc1cc(Cl)ccc13 [Example 249, (3R,6R,7S,8E,22R)-6′-Chloro-7-hydroxy-12,12-dimethyl-15,15-dioxo-spiro[11,20-dioxa-15-thia-1,14-diazatetracyclo[14.7.2.03,6.019,24]pentacosa-8,16,18,24-tetraene-22,1′-isochromane]-13-one]
9 | > 1 | 0.001 to 0.1 |  | CC1(C)OC/C=C/[C@H](O)[C@@H]2CC[C@H]2CN2C[C@@]3(CCOc4cc(Cl)ccc43)COc3ccc(cc32)S(=O)(=O)NC1=O [Example 246, (3R,6R,7S,8E,22S)-7′-chloro-7-hydroxy-12,12-dimethyl-15,15-dioxo-spiro[11,20-dioxa-15-thia-1,14-diazatetracyclo[14.7.2.03,6.019,24]pentacosa-8,16,18,24-tetraene-22,4′-chromane]-13-one]
10 | < 0.5 | < 0.001 |  | CN(C)C(=O)O[C@H]1/C=C/COC(C)(C)C(=O)NS(=O)(=O)c2ccc3c(c2)N(C[C@@H]2CC[C@H]21)C[C@]1(CO3)OCCc2cc(Cl)ccc21 [Example 250, [(3R,6R,7S,8E,22R)-6′-Chloro-12,12-dimethyl-13,15,15-trioxo-spiro[11,20-dioxa-15-thia-1,14-diazatetracyclo[14.7.2.03,6.019,24]pentacosa-8,16,18,24-tetraene-22,1′-isochromane]-7-yl] N,N-dimethylcarbamate]
11 | > 1 | < 0.001 |  | CC1(C)OC/C=C/[C@H](OC(=O)N2CCOCC2)[C@@H]2CC[C@H]2CN2C[C@@]3(CCOc4cc(Cl)ccc43)COc3ccc(cc32)S(=O)(=O)NC1=O [Example 248, [(3R,6R,7S,8E,22S)-7′-Chloro-12,12-dimethyl-13,15,15-trioxo-spiro[11,20-dioxa-15-thia-1,14-diazatetracyclo[14.7.2.03,6.019,24]pentacosa-8,16,18,24-tetraene-22,4′-chromane]-7-yl]morpholine-4-carboxylate]

The remaining lines, values behind:

Row | Compound | IC50 (H929 cells) [µM] | Ki (MCL-1; class symbols) [µM] | Ki (MCL-1; numeric values) [µM]
12 | COCCN1CCCN(CCO[C@H]2/C=C/CN(C)C(C)(C)C(=O)NS(=O)(=O)c3ccc4c(c3)N(C[C@@H]3CC[C@H]32)C[C@@]2(CCCc3cc(Cl)ccc32)CO4)CC1 [Example 277, (3R,6R,7S,8E,22S)-6′-Chloro-7-[2-[4-(2-methoxyethyl)-1,4-diazepan-1-yl]ethoxy]-11,12,12-trimethyl-15,15-dioxo-spiro[20-oxa-15-thia-1,11,14-triazatetracyclo[14.7.2.03,6.019,24]pentacosa-8,16,18,24-tetraene-22,1′-tetralin]-13-one] | > 1 | 0.001 to 0.1 | 
13 | C[C@@H]1C(=O)NS(=O)(=O)c2ccc3c(c2)N(C[C@@H]2CC[C@H]2[C@@H](O)/C=C/CN1C)C[C@@]1(CCCc2cc(Cl)ccc21)CO3 [Example 144, (3R,6R,7S,8E,12R,22S)-6′-Chloro-7-hydroxy-11,12-dimethyl-15,15-dioxo-spiro[20-oxa-15-thia-1,11,14-triazatetracyclo[14.7.2.03,6.019,24]pentacosa-8,16,18,24-tetraene-22,1′-tetralin]-13-one] | > 1 | 0.001 to 0.1 | 
14 | C[C@H]1NC/C=C/[C@H](OC(=O)N(C)C)[C@@H]2CC[C@H]2CN2C[C@@]3(CCCc4cc(Cl)ccc43)COc3ccc(cc32)S(=O)(=O)NC1=O [Example 146, [(3R,6R,7S,8E,12R,22S)-6′-Chloro-12-methyl-13,15,15-trioxo-spiro[20-oxa-15-thia-1,11,14-triazatetracyclo[14.7.2.03,6.019,24]pentacosa-8,16,18,24-tetraene-22,1′-tetralin]-7-yl] N,N-dimethylcarbamate] | < 0.5 | 0.001 to 0.1 | 
15 | CCN1C/C=C/[C@@H](OC)[C@@H]2CC[C@H]2CN2C[C@@]3(CCCc4cc(Cl)ccc43)COc3ccc(cc32)S(=O)(=O)NC(=O)[C@H]1C [Example 132, (3R,6R,7R,8E,12R,22S)-6′-Chloro-7-methoxy-11-ethyl-12-methyl-15,15-dioxo-spiro[20-oxa-15-thia-1,11,14-triazatetracyclo[14.7.2.03,6.019,24]pentacosa-8,16(25),17,19(24)-tetraene-22,1′-tetralin]-13-one] | < 0.5 | 0.001 to 0.1 | 
16 | CO[C@@H]1/C=C\CN(C)[C@H](C)C(=O)NS(=O)(=O)c2ccc3c(c2)N(C[C@@H]2CC[C@H]21)C[C@@]1(CCCc2cc(Cl)ccc21)CO3 [Example 124, (3R,6R,7R,8Z,12R,22S)-6′-Chloro-7-methoxy-11,12-dimethyl-15,15-dioxo-spiro[20-oxa-15-thia-1,11,14-triazatetracyclo[14.7.2.03,6.019,24]pentacosa-8,16(25),17,19(24)-tetraene-22,1′-tetralin]-13-one] | < 1 | 0.001 to 0.1 | 
17 | COCCOC[C@H]1C(=O)NS(=O)(=O)c2ccc3c(c2)N(C[C@@H]2CC[C@H]2[C@H](OC)/C=C/C[C@@H]1C)C[C@@]1(CCCc2cc(Cl)ccc21)CO3 [Example 93, (3R,6R,7R,8E,11S,12S,22S)-6′-chloro-7-methoxy-12-(2-methoxyethoxymethyl)-11-methyl-15,15-dioxo-spiro[20-oxa-15-thia-1,14-diazatetracyclo[14.7.2.03,6.019,24]pentacosa-8,16,18,24-tetraene-22,1′-tetralin]-13-one] | > 1 | 0.001 to 0.1 | 
18 | CC(=O)NS(=O)(=O)c1ccc2c(c1)N(CC1CCCCC1)CC1(CCCc3cc(Cl)ccc31)CO2 (stereo not drawn) [Example 3, N-[6′-Chloro-5-(cyclohexylmethyl)spiro[2,4-dihydro-1,5-benzoxazepine-3,1′-tetralin]-7-yl]sulfonylacetamide] | > 1 |  | 0.143

Reference: US11130769B2 (Prelude Therapeutics Incorporated, priority 2018, dated 2021)
